Experiments:
Erysiphe polygoni = assay: whole plant or invertebrate; conditions: foliar, 24 h, read-out: Percent Disease Control, curative, bean powdery mildew
Alternaria solani = assay: Mycelial growth test; assay type: cell-based; conditions: Alternaria solani, 72 h, AS, read-out: Percent Fungus Growth Inhibition

SMILES | pest or weed control at 150 ppm (Erysiphe polygoni) [%] | inhibition at 5 ppm (Alternaria solani) [%] | inhibition at 10 ppm (Alternaria solani) [%] | inhibition at 20 ppm (Alternaria solani) [%] | inhibition at 40 ppm (Alternaria solani) [%]
O=c1c(Cl)nsnc1Oc1c(Cl)c(Cl)c(Cl)c(Cl)c1Cl [Compound 31, 3-chloro-5-(pentachlorophenoxy)-4H--1,2,6-thiadiazine-4-one] | 100 | 48 | 60 | 48 | 67
O=c1c(Cl)nsnc1Oc1ccc(Cl)cc1 [Compound 12, 3-chloro-5-(4-chlorophenoxy)-4H--1,2,6-thiadiazin-4-one] | 50 | 31 | 31 | 63 | 100
CSc1ccc(Oc2nsnc(Cl)c2=O)cc1 [Compound 39, 3-chloro-5-[(4-methylthio)phenoxy]-4H-1,2,6,-thiadiazin-4-one] | 0 | 42 | 33 | 42 | 54
O=c1c(Cl)nsnc1Oc1c(Cl)cc(Cl)cc1Cl [Compound 30, 3-chloro-5-(2,4,6-trichlorophenoxy)-4H--1,2,6-thiadiazin-4-one] | 100 | 29 | 67 | 81 | 90
CC(=O)Nc1ccccc1Oc1nsnc(Cl)c1=O [Compound 43, 3-[(2-acetylamino)-phenoxy]-5-chloro-4H--1,2,6-thiadiazin-4-one] | 0 | 80 | 100 | 100 | 100
CNC(=O)Nc1ccc(Oc2nsnc(Cl)c2=O)cc1 [Compound 28, 3-chloro-5-[4-(3-methylureido)-phenoxy]-4H--1,2,6-thiadiazin-4-one] | 50 | 40 | 47 | 50 | 70
CC(=O)c1ccccc1Oc1nsnc(Cl)c1=O [Compound 49, 3-(2-acetylphenoxy)-5-chloro-4H--1,2,6-thiadiazin-4-one] | 0 | 100 | 100 | 100 | 100
COc1ccc(Cl)c(Oc2nsnc(Cl)c2=O)c1 [Compound 51, 3-chloro-5-[(2-chloro-5-methoxy)phenoxy]-4H--1,2,6-thiadiazin-4-one] | 0 | 52 | 75 | 81 | 90
O=C(O)Cc1ccccc1Oc1nsnc(Cl)c1=O [Compound 45, 3-(2-carboxymethylphenoxy)-5-chloro-4H--1,2,6-thiadiazin-4-one] | 0 | 4 | 0 | 25 | 54
Cc1ccccc1Oc1nsnc(Cl)c1=O [Compound 22, 3-chloro-5-(2-methylphenoxy)-4H--1,2,6-thiadiazin-4-one] | 100 | 63 | 88 | 100 | 100
O=C(Nc1ccccc1)Nc1ccc(Oc2nsnc(Cl)c2=O)cc1 [Compound 29, 3-chloro-5-[4-(3-phenylureido)-phenoxy]-4H--1,2,6-thiadiazin-4-one] | 0 | 47 | 30 | 37 | 47
CCCCOc1ccc(Oc2nsnc(Cl)c2=O)cc1 [Compound 6, 3-chloro-5-(4-n-butoxyphenoxy)-4H--1,2,6-thiadiazin-4-one] | 100 | 8 | 0 | 13 | 21
Cc1ccc(Oc2nsnc(Cl)c2=O)c(C)c1 [Compound 23, 3-chloro-5-(2,4-dimethylphenoxy)-4H--1,2,6-thiadiazin-4-one] | 0 | 63 | 81 | 100 | 100
O=c1c(Cl)nsnc1Oc1ccc([N+](=O)[O-])cc1Cl [Compound 53, 3-chloro-5-(2-chloro-4-nitrophenoxy)-4H--1,2,6-thiadiazin-4-one] | 0 | 38 | 42 | 67 | 100
CC(=O)Nc1cccc(Oc2nsnc(Cl)c2=O)c1 [Compound 42, 3-[(3-N--acetylamino)-phenoxy]-5-chloro-4H--1,2,6-thiadiazin-4-one] | 0 | 24 | 33 | 52 | 90
COc1ccc(Oc2nsnc(Cl)c2=O)cc1 [Compound 5, 3-chloro-5-(4-methoxyphenoxy)4H--1,2,6-thiadiazin-4-one] | 0 | 100 | 100 | 100 | 100
O=c1c(Cl)nsnc1Oc1ccccc1Cl [Compound 14, 3-chloro-5-(2-chlorophenoxy)-4H--1,2,6-thiadiazin-4-one] | 50 | 86 | 79 | 100 | 100
O=c1c(Cl)nsnc1Oc1ccccc1 [Compound 2, 3-chloro-5-phenoxy-4H--1,2,6-thiadiazin-4-one] | 100 | 75 | 100 | 100 | 100
CS(=O)(=O)c1ccc(Oc2nsnc(Cl)c2=O)cc1 [Compound 41, 3-chloro-5-[(4-methylsulfonyl)phenoxy]-4H--1,2,6-thiadiazin-4-one] | 0 | 54 | 58 | 58 | 100
O=C(OCc1ccccc1)Oc1ccc(Oc2nsnc(Cl)c2=O)cc1 [Compound 38, 3-chloro-5-[4-(phenylmethoxycarbonyloxy)phenoxyl]-4H-1,2,6-thiadiazin-4-one] | 0 | 5 | 48 | 33 | 90
Cc1cccc(C)c1Oc1nsnc(Cl)c1=O [Compound 24, 3-chloro-5-(2,6-dimethylphenoxy)-4H--1,2,6-thiadiazin-4-one] | 100 | 100 | 88 | 100 | 100
O=c1c(Cl)nsnc1Oc1ccc(Br)cc1 [Compound 15, 3-chloro-5-(4-bromophenoxy)-4H--1,2,6-thiadiazin-4-one] | 100 | 54 | 66 | 66 | 75
O=c1c(Cl)nsnc1Oc1ccccc1Br [Compound 34, 3-chloro-5-(2-bromophenoxy)-4H-1,2,6,-thiadiazin-4-one] | 95 | 100 | 100 | 100 | 100
Cc1cc(C)cc(Oc2nsnc(Cl)c2=O)c1 [Compound 25, 3-chloro-5-(3,5-dimethylphenoxy)-4H--1,2,6-thiadiazin-4-one] | 100 | 69 | 75 | 81 | 88
CCOC(=O)c1ccc(Oc2nsnc(Cl)c2=O)cc1 [Compound 7, 3-chloro-5-(4-ethoxycarbonylphenoxy)-4H--1,2,6-thiadiazin-4-one] | 0 | 54 | 75 | 75 | 92
Cc1cccc(Oc2nsnc(Cl)c2=O)c1 [Compound 21, 3-chloro-5-(3-methylphenoxy)-4H--1,2,6-thiadiazin-4-one] | 100 | 75 | 63 | 75 | 100
N#CCc1ccc(Oc2nsnc(Cl)c2=O)cc1 [Compound 46, 3-chloro-5-[(4-cyanomethyl)-phenoxy]4H--1,2,6-thiadiazin-4-one] | 0 | 71 | 81 | 100 | 100
O=c1c(Cl)nsnc1Oc1cc(Cl)cc(Cl)c1 [Compound 20, 3-chloro-5-(3,5-dichlorophenoxy)-4H--1,2,6-thiadiazin-4-one] | 100 | 59 | 59 | 59 | 83
O=c1c(Cl)nsnc1Oc1cccc(C(F)(F)F)c1 [Compound 44, 3-chloro-5-[(3-trifluoromethyl)phenoxy]-4H--1,2,6-thiadiazin-4-one] | 100 | 52 | 62 | 100 | 100
